{"source": "patent US9415134B2", "about": "“Fosfomycin preparation, a method for producing the preparation, and a polymethylmethacrylate bone cement powder containing the preparation” (HERAEUS MEDICAL GMBH, priority 2014, dated 2016)", "key": {"[1]": {"molecular_target": "MurA (UDP-N-acetylglucosamine-enolpyruvyl-transferase) (Escherichia coli, UniProt P0A749)", "sequence (P0A749 whole entry)": "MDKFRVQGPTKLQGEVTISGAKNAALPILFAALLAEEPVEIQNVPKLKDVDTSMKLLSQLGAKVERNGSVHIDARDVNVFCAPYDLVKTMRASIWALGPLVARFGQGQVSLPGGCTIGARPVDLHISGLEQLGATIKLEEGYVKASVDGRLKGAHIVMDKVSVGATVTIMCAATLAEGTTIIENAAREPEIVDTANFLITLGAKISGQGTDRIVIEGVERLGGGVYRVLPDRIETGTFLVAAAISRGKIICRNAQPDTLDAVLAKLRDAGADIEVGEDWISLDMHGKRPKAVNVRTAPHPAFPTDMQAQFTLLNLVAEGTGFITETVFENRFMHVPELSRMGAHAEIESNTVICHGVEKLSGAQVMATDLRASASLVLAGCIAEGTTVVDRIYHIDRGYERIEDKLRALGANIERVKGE", "details": "cited from earlier work"}, "[2]": {"tested_on": "gram-negative and gram-positive bacteria including methicillin-resistant staphylococci", "details": "cited from earlier work"}, "[3]": {"tested_on": "vancomycin-resistant Staphylococcus aureus (VRS)", "details": "cited from earlier work"}, "[4]": {"tested_on": "ESBL", "details": "cited from earlier work"}, "[5]": {"tested_on": "vancomycin-resistant enterococci", "details": "cited from earlier work"}, "[6]": {"assay": "Hygroscopic properties of fosfomycin salts", "assay_type": "physicochemical", "details": "salt alone, atmospheric humidity", "description": "Both salts attract atmospheric humidity and deliquesce in the process. Experiments have shown that these salts, in the dry state, can be integrated into cement powders of polymethylmethacrylate bone cements. However, said cement powders also attract atmospheric humidity during storage on air, upon which the antibiotic particles deliquesce. This can cause the cement powder to clump. For this reason, both of these fosfomycin salts are unsuitable or poorly suitable for industrial production of antibiotic polymethylmethacrylate bone cement powders."}}, "data": [{"smiles": "C[C@@H]1O[C@@H]1P(=O)(O)O", "note": "[Fosfomycin, (2R,3S)-3-methyloxiranphosphonic acid]", "values": [{"measurement": "Inhibition of MurA", "setting": "[1]", "value": "inhibits"}, {"measurement": "Antibacterial activity", "setting": "[2]; gram-negative and gram-positive bacteria including methicillin-resistant staphylococci", "value": "active"}, {"measurement": "Mode of antibacterial action", "setting": "[2]; in susceptible bacteria", "value": "bactericidal"}, {"measurement": "Antibacterial efficacy", "setting": "[3]", "value": "efficacious"}, {"measurement": "Antibacterial efficacy", "setting": "[4]", "value": "efficacious"}, {"measurement": "Antibacterial efficacy", "setting": "[5]", "value": "efficacious"}]}, {"smiles": "C[C@@H]1O[C@@H]1P(=O)([O-])[O-].O.[Ca+2]", "note": "[calcium salt of fosfomycin, monohydrate of the calcium salt of fosfomycin]", "values": [{"measurement": "Hygroscopic properties", "setting": "[6]", "value": "extraordinarily hygroscopic"}]}, {"smiles": "C[C@@H]1O[C@@H]1P(=O)([O-])[O-].[Na+].[Na+]", "note": "[sodium salt, disodium salt of fosfomycin]", "values": [{"measurement": "Hygroscopic properties", "setting": "[6]", "value": "extraordinarily hygroscopic"}]}, {"smiles": "C[C@@H]1O[C@@H]1P(=O)(O)O.NC(CO)(CO)CO", "note": "[trometamol-fosfomycin]", "values": [{"measurement": "Hygroscopic properties", "setting": "[6]", "value": "somewhat hygroscopic"}]}]}
